Measurements from article PMC9960821, “Evaluation of Rhenium and Technetium-99m Complexes Bearing Quinazoline Derivatives as Potential EGFR Agents” (Molecules, 2023).

What was measured:
EGFR = target: T1, EGFR (Homo sapiens, UniProt P00533); assay: Inhibition of EGFR phosphorylation in intact A431 cells (immunoblotting); type: cell-based; settings: 2 h compound then EGF 20 ng/mL 5 min, Western blot
T1 construct: by immunoblotting in intact A431 cells that overexpress EGFR; endogenous in cells; host or cells: A431 (human epidermoid vulvar carcinoma)
T1 sequence (P00533 25-1210): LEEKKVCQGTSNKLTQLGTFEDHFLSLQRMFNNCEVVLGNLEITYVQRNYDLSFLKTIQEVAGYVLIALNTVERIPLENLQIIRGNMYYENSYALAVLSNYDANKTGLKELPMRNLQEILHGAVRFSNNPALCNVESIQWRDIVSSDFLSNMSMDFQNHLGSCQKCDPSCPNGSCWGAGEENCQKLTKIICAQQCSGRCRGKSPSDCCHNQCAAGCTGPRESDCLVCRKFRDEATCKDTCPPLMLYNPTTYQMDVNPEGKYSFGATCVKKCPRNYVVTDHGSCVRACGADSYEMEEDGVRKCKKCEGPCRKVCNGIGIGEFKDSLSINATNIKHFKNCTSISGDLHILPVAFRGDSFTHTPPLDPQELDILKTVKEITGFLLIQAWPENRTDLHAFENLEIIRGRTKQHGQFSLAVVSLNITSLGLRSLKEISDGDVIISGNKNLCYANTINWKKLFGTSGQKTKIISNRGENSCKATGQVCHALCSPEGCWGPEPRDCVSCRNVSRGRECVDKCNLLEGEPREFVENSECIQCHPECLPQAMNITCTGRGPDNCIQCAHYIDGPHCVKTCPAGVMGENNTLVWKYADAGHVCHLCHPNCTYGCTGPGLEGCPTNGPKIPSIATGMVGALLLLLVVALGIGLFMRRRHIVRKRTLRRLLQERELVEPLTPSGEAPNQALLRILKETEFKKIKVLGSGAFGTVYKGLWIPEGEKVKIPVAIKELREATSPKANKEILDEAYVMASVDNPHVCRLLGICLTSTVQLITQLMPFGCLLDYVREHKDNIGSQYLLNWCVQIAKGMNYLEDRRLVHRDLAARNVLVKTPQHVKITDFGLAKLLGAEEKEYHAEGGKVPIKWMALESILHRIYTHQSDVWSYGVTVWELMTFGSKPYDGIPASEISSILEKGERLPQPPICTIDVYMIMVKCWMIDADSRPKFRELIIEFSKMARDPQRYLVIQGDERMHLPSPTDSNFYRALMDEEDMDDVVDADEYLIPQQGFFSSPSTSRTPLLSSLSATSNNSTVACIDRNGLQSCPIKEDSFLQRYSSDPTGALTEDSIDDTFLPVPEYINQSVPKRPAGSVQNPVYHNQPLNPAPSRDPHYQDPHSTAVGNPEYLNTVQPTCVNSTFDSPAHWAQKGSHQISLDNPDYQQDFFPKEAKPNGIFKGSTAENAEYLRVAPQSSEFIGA
Method: Complex 5a was evaluated for its potency to inhibit EGFR phosphorylation in various concentrations by immunoblotting in intact A431 cells that overexpress EGFR (Figure 3). In addition, the percentage of EGFR phosphorylation was calculated, and a dose-response curve was performed (Figure 4).
Cell line. The in vitro biological studies were established using the human epidermoid vulvar carcinoma A431 cell line, which overexpresses EGFR. Cells were available in our laboratory from previous studies. Cells were maintained in high glucose D-MEM medium with L-glutamine (PAA Laboratories GmbH, Pasching, Austria) and supplemented with 10% fetal bovine serum (PAA Laboratories GmbH) and penicillin/streptomycin (PAA Laboratories GmbH) 100 UI/100 μg per mL, in 5% CO2 incubator at 37 °C.
The inhibition of EGFR phosphorylation was studied as described in the literature. A431 cells (5 × 10^5 cells/well) were seeded in 6-well plates and incubated for 24 h. Then, the medium was replaced with fresh medium without fetal bovine serum. […] Protein band quantification was performed using Image-J software, and the percentage of EGFR phosphorylation inhibition was calculated using GraphPad Prism 9.0 software.

[1] = Stability of 99mTc complexes in reaction mixture and after isolation in PBS (RP-HPLC); type: physicochemical
Method: (§1) The stability of complexes 5b and 7b was studied in their reaction mixture and after isolation by HPLC for up to 24 h.
Stability of ^99mTc complexes in the reaction mixture: Samples of the ^99mTc complexes’ reaction mixture were stored at room temperature for up to 24 h. At 1, 6, and 24 h intervals, 100 μL of each sample was removed and analyzed by RP-HPLC.
Stability of isolated ^99mTc complexes: Purification and isolation of 5b and 7b complexes were performed by injection of the reaction mixture into RP-HPLC and isolation of the eluted compounds’ peaks, corresponding to the elution time of each complex. Followingly, 0.1 M PBS buffer solution (900 µL) was added to a vial containing 100 µL (50–120 MBq) of the isolated technetium-99m complex. The sample was incubated at 37 °C for up to 24 h and analyzed by RP-HPLC at 1, 6, and 24 h intervals.

[2] = Cysteine and histidine challenge of 99mTc complexes (RP-HPLC); type: physicochemical
Method: as §1
Cysteine and histidine challenge: Histidine (100 µL, 1 × 10^−2 M) or cysteine (100 µL, 1 × 10^−2 M) solution in 0.1 M PBS was mixed with 100 µL (50–120 MBq) of the RP-HPLC isolated ^99mTc complexes in 0.1 M PBS (800 µL). The mixtures were incubated at 37 °C for up to 24 h and analyzed by RP-HPLC at 1, 6, and 24 h intervals.

[3] = Lipophilicity, shake-flask distribution coefficient; type: physicochemical; settings: n-octanol/0.1 M phosphate buffer pH 7.4
Method: The pharmacokinetic profile of the studied compounds could be affected by their lipophilicity, expressed as the logarithm of the distribution coefficient (log Do/w). The lipophilicity of complexes 5b and 7b was determined in physiological conditions (n-octanol/0.1 M phosphate buffer pH 7.4). […] The presence of the pyridine ring in the chemical structure of complex […] increases the log D7.4 value, as expected.
The distribution coefficient of the 5b and 7b complexes was determined with the shake-flask method. The RP-HPLC isolated ^99mTc complexes (20 μL, ~75 kBq) were mixed with 2 mL of 1-octanol and 2 mL of phosphate buffer solution (PBS, 0.1 M, pH 7.4) in a centrifuge tube. The mixture was vortexed at room temperature for 2 min and centrifuged at 5000 rpm for 10 min. The radioactivity of each phase (200 μL) was counted in a gamma counter. The distribution coefficient was calculated by dividing the cpm/mL in the 1-octanol phase by those in the buffer, and the results were expressed as logD7.4. Each experiment was run in triplicate.

IC50 (EGFR): 26.1 nM
%RCP in PBS for 24 h ([1]; 0.1 M PBS, 37 °C, 24 h): 99 ± 2%
Stability in reaction mixture and after isolation by HPLC ([1]; up to 24 h, room temperature or 37 °C): No decomposition
Stability after incubation with excess of histidine and cysteine ([2]; 24 h, molar ratio 1/1000, HPLC): > 95%
%RCP in Cysteine for 24 h ([2]; excess cysteine, 37 °C): 99 ± 1%
%RCP in Histidine for 24 h ([2]; excess histidine, 37 °C): 99 ± 1%
log D7.4 [3]: 3.27 ± 0.25
SMILES: O=C([O-])CN(CCCCCC(=O)Nc1ccc2ncnc(Nc3cccc(Br)c3)c2c1)Cc1ccccn1.[99Tc+].[C-]#[O+].[C-]#[O+].[C-]#[O+] [Compound 5b, fac-[^99mTc(NNO)(CO)3]]
